From patent US12404303B2, “Polypeptide and use thereof” (NANJING ANJI BIOLOGICAL TECHNOLOGY CO., LTD., priority 2019, dated 2025)
No end group written: not given here.

How the values were obtained:
[1] = test system: SD rats with bleomycin-induced pulmonary fibrosis; test: Bleomycin-induced pulmonary fibrosis animal model; type: in vivo; conditions: bleomycin 5 mg/kg intratracheal, polypeptides 7.5 mg/kg subcutaneous twice a day, positive drug 25 mg/kg intragastric once a day, 14 days
Experimental: SD rats were anesthetized by intraperitoneal injection of 1 mL/100 g 4% chloral hydrate. After anesthesia, the rats were fixed and their necks were disinfected by using cotton with 75% alcohol. The skin of the rat neck was longitudinally cut with scissors, and the fascia and muscle were longitudinally bluntly torn with tweezers to expose the trachea. A syringe was inserted into the trachea to inject 5 mg/kg bleomycin, while a blank group was injected with an equal amount of normal saline. Then a rat plate was quickly erected and rotated, the rats' breathing was observed, the neck wound was sterilized after rotation and was sewn, and an amoxicillin anti-inflammatory drug was sprinkled on the suture. After the operation, the rats were put back into a dry and clean cage for resting, waiting was performed for awakening. The rats were awakened after about 1-2 hours, and then fed normally. On the 7th day after modeling, modeling group animals randomly fell into a model group, a Nintedanib positive drug group, polypeptide I, II, III and IV dosage groups, and a normal control group, and the groups were administered separately for an administration cycle of 14 days. Living situations of rats were observed every day and their weights were weighed.

streptococcus pneumoniae = test: Mouse pneumonia model, bacterial pneumonia; type: in vivo, BALB/C mice; conditions: average values±standard deviation
From the text: (§1) A mouse pneumonia model was successfully established by using a nasal drip method. BALB/C mice with a body weight of 18-24 g were selected, and then anesthetized with ether on day 0, day 1 and day 2, respectively, prepared streptococcus pneumoniae bacteria solution, adenovirus concentrated solution, mycoplasma pneumoniae, chlamydia pneumoniae, protozoa and pneumonia fungi were slowly dropped into the nasal cavity of the mice, so that the bacteria solutions entered the trachea and bronchi, and the bacteria solutions were prevented from flowing into the esophagus during the operation to avoid inactivation of the bacteria solutions, so that the mouse pneumonia model was established. After the model was successfully established, the polypeptide according to the present disclosure was administered, as shown in FIG. 7 and Table 9. […] The experimental results are represented on the basis of average values±standard deviation.

chlamydia pneumoniae = test: Mouse pneumonia model, chlamydia pneumonia; type: in vivo, BALB/C mice; conditions: average values±standard deviation
From the text: as §1

mycoplasma pneumoniae = test: Mouse pneumonia model, mycoplasma pneumonia; type: in vivo, BALB/C mice; conditions: average values±standard deviation
From the text: as §1

protozoa = test: Mouse pneumonia model, protozoal pneumonia; type: in vivo, BALB/C mice; conditions: average values±standard deviation
From the text: as §1

adenovirus = test: Mouse pneumonia model, viral pneumonia; type: in vivo, BALB/C mice; conditions: average values±standard deviation
From the text: as §1

pneumonia fungi = test: Mouse pneumonia model, fungal pneumonia; type: in vivo, BALB/C mice; conditions: average values±standard deviation
From the text: as §1

pulmonary infections = test: Mouse pneumonia model, pneumonia caused by pulmonary infections; type: in vivo, BALB/C mice; conditions: average values±standard deviation
From the text: as §1

[2] = test system: SD rats with renal fibrosis; test: Renal fibrosis animal model (ureter ligation), TGF-β1 in serum; type: in vivo; conditions: 7.5 mg/kg subcutaneous twice a day, 14 days, vs model group; FIG. 4
Experimental: A renal fibrosis animal model was established. SD rats were anesthetized with 4% chloral hydrate, injected with 1 mL/100 g intraperitoneally, fixed to an operation board, and sterilized in an operation area for later use. […] Muscular layers and abdominal walls were sewed layer by layer, the suture was disinfected with alcohol. After SD rats woke up, the rats were put into a cage for feeding. In the blank group, ureter was not ligated, and other steps were the same. Then, the animals fell into a blank group, a model group, and polypeptide administration groups, and the administration was started on the second day after the operation, twice a day for 14 days. After administration for 14 days, blood was taken and supernatant was taken to detect the content of TGF-β1 in serum. [table]

[3] = test system: cardiac fibroblasts of rats; test: Proliferation of cardiac fibroblasts of rats (MTT, in vitro myocardial fibrosis model); type: cell-based; conditions: 1 μmol/L; for Optical density values, 12 hours / Optical density values, 24 hours / Optical density values, 48 hours: MTT, 570 nm; for inhibition of the proliferation of cardiac fibroblasts of rats: at 24 hours and 48 hours
Experimental: The inhibitory effect of a polypeptide on cardiac fibroblasts of rats was detected by MTT assay. Cells were cultured in a DMEM medium containing 10% of FBS, the cytoplasm was made into 1×10^5/mL cell suspension, and 100 μL per well was inoculated into a 96-well plate. After the cells adhered to the wall, the medium was replaced with a serum-free DMEM medium, and the serum-free medium was discarded after 24 hours. The cells were cultured with different polypeptides of 1 μmol/L, and 5 multiple wells were set for each concentration. After 12, 24 and 48 hours separately, 10 μL of MTT was added to each well. After 4 hours, MTT was sucked out, and 150 μL of DMSO was added to each well. After reaction for 5 min, an OD value was measured at 570 nm by a microplate reader.

LX-2 cells = test: Proliferation of LX-2 cells induced by TGF-β1 (MTT, in vitro hepatic fibrosis model); type: cell-based; conditions: polypeptide 1 μmol/L, TGF-β1 10 ng/mL, 48 hours; for OD value: MTT, 570 nm
Experimental: LX-2 cells were cultured in 1640 medium containing 10% FBS, and cultured in an incubator with 5% CO2 at 37° C. The medium was replaced every two days, and subcultured according to the cell density. The LX-2 cells in a logarithmic growth phase were digested with 0.25% pancreatin to make cell suspension. The density of the cells was adjusted to 4×10^5 cells/mL, and the cells were inoculated into 96-well plates with 100 μL per well and cultured overnight. On the second day, TGF-β1 was added to induce the proliferation and activation of the LX-2 cells, and the polypeptide drugs were administrated at 1 μmol/L. TGF-β1 (10 ng/mL) was added to each group except the blank group. The cells were cultured in the incubator for 48 hours, and then 10 μL of MTT was added to each well. The MTT was removed after 4 hours, and 150 μL of DMSO was added for reaction for 5 min. An OD value was measured by a microplate reader at 570 nm.

skin fibrosis model mice = test: Skin fibrosis model induced by bleomycin, HYP in skin tissue; type: in vivo, C57/BL black mice; conditions: skin tissue of the mouse back; 10 mg/kg subcutaneous twice a day, 28 days, vs model group; FIG. 6
Experimental: Bleomycin (10 μg/mL) was injected subcutaneously every day for 28 days to form skin fibrosis. During the modeling period, the administration groups were given polypeptide drugs every day for treatment, with 10 mice in each group. After modeling, the mice were killed on the next day, and the skin tissue of the mouse back was taken to detect the content of HYP in the skin tissue. [table]

myelofibrosis model mice = test: Myelofibrosis model induced by rh EPO; type: in vivo, Kunming mice; design: WBC / Hb / MCV / RDW: unit not given here; conditions: 10 mg/kg subcutaneous twice a day, 28 days; for Hb / MCV / RDW / WBC: peripheral blood; for content of TGF-β1 in serum: mouse serum, vs model group, FIG. 5
Experimental: There were 10 mice in each group. The normal control group was injected with normal saline (0.3 mL for each mouse), and the remaining groups were injected with rh EPO (0.1 unit/gram, body weight, 0.3 mL for each mouse) intraperitoneally every day. After induction for two days, drug therapy was started, subcutaneous injection was given twice a day, and after continuous administration for 28 days, the mouse heart was punctured for blood extraction, some blood was used for peripheral blood analysis, some blood was centrifuged, and the supernatant was taken to measure the content of TGF-β1 in the serum of mice. [table]

Question: Which “Survival rate (%)” value [1] does the source give for COC(=O)c1ccc2c(c1)NC(=O)/C2=C(\Nc1ccc(N(C)C(=O)CN2CCN(C)CC2)cc1)c1ccccc1 [Positive drug, Nintedanib, reference compound] here?
Answer: 85.7%

Question: Which results are given for Penicillin [reference compound]?
Answer: Inhibitory effect on pulmonary infections, Bacterial pneumonia (streptococcus pneumoniae): 35.05 ± 5.75; Inhibitory effect on pulmonary infections, Chlamydia pneumonia (chlamydia pneumoniae): 30.75 ± 3.31; Inhibitory effect on pulmonary infections, Mycoplasma pneumonia (mycoplasma pneumoniae): 41.77 ± 5.73; Inhibitory effect on pulmonary infections, Protozoal pneumonia (protozoa): 39.04 ± 3.71; Inhibitory effect on pulmonary infections, Viral pneumonia (adenovirus): 38.07 ± 2.27; Inhibitory effect on pulmonary infections, Fungal pneumonia (pneumonia fungi): 38.61 ± 3.82; Inhibitory effect on pulmonary infections, Pneumonia caused by pulmonary infections (pulmonary infections): 35.67 ± 4.55

Question: Which results are given for “RGADRAGGGGPRCWCGE (cysteine pairing not given here) [Polypeptide II]”?
Answer: Inhibitory effect on pulmonary infections, Bacterial pneumonia (streptococcus pneumoniae): 49.25 ± 9.48; Inhibitory effect on pulmonary infections, Chlamydia pneumonia (chlamydia pneumoniae): 57.81 ± 5.21; Inhibitory effect on pulmonary infections, Mycoplasma pneumonia (mycoplasma pneumoniae): 54.69 ± 5.72; content of TGF-β1 in serum [2]: highly significantly different from the model group (***P<0.001); Optical density values, 12 hours [3]: 0.325 ± 0.004; Optical density values, 24 hours [3]: 0.377 ± 0.015; Optical density values, 48 hours [3]: 0.518 ± 0.015; inhibition of the proliferation of cardiac fibroblasts of rats [3]: could inhibit the proliferation; Inhibitory effect on pulmonary infections, Protozoal pneumonia (protozoa): 63.60 ± 6.16; Inhibitory effect on pulmonary infections, Viral pneumonia (adenovirus): 70.33 ± 9.27; Inhibitory effect on pulmonary infections, Fungal pneumonia (pneumonia fungi): 65.32 ± 3.07; Inhibitory effect on pulmonary infections, Pneumonia caused by pulmonary infections (pulmonary infections): 66.15 ± 5.87; inhibition of proliferation and activation of LX-2 cells, difference from model group (LX-2 cells): highly significantly different from the model group (**P<0.01); OD value (LX-2 cells): 0.59 ± 0.02; Survival rate (%) [1]: 85.7%; expression of HYP in the skin tissue (skin fibrosis model mice): highly significantly different from the model group (***P<0.001); Hb (myelofibrosis model mice): 151 ± 19; MCV (myelofibrosis model mice): 51 ± 9; RDW (myelofibrosis model mice): 26 ± 3; WBC (myelofibrosis model mice): 5.61 ± 1.43

Question: How did the “Inhibitory effect on pulmonary infections, Bacterial pneumonia” value (streptococcus pneumoniae) turn out when RGADRAGGGGPRCWRGE [Polypeptide I] was run?
Answer: 43.83 ± 7.59

Question: And the “Inhibitory effect on pulmonary infections, Chlamydia pneumonia” value (chlamydia pneumoniae)?
Answer: 45.18 ± 7.46

Question: And the “Inhibitory effect on pulmonary infections, Mycoplasma pneumonia” value (mycoplasma pneumoniae)?
Answer: 41.48 ± 5.55

Question: And the “content of TGF-β1 in serum” value [2]?
Answer: highly significantly different from the model group (**P<0.01)

Question: What about the “Optical density values, 12 hours” value [3] of the same molecule?
Answer: 0.326 ± 0.006

Question: And the “Optical density values, 24 hours” value [3]?
Answer: 0.392 ± 0.008

Question: And the “Optical density values, 48 hours” value [3]?
Answer: 0.580 ± 0.012

Question: What about the “inhibition of the proliferation of cardiac fibroblasts of rats” value [3] of the same molecule?
Answer: could inhibit the proliferation

Question: What about the “Inhibitory effect on pulmonary infections, Protozoal pneumonia” value (protozoa) of the same molecule?
Answer: 48.16 ± 5.46

Question: And the “Inhibitory effect on pulmonary infections, Viral pneumonia” value (adenovirus)?
Answer: 58.00 ± 6.84

Question: And the “Inhibitory effect on pulmonary infections, Fungal pneumonia” value (pneumonia fungi)?
Answer: 45.65 ± 9.68

Question: What about the “Inhibitory effect on pulmonary infections, Pneumonia caused by pulmonary infections” value (pulmonary infections) of the same molecule?
Answer: 52.47 ± 7.88

Question: What about the “inhibition of proliferation and activation of LX-2 cells, difference from model group” value (LX-2 cells) of the same molecule?
Answer: significantly different from the model group (*P<0.05)

Question: And the OD value (LX-2 cells)?
Answer: 0.66 ± 0.02

Question: What about the “Survival rate (%)” value [1] of the same molecule?
Answer: 78.6%

Question: What about the “expression of HYP in the skin tissue” value (skin fibrosis model mice) of the same molecule?
Answer: highly significantly different from the model group (***P<0.001)

Question: What about the “content of TGF-β1 in serum” value (myelofibrosis model mice) of the same molecule?
Answer: highly significantly different from the model group (**P<0.01)

Question: And the Hb (myelofibrosis model mice)?
Answer: 143 ± 23

Question: What about the MCV (myelofibrosis model mice) of the same molecule?
Answer: 52 ± 4

Question: What about the RDW (myelofibrosis model mice) of the same molecule?
Answer: 31 ± 2

Question: What about the WBC (myelofibrosis model mice) of the same molecule?
Answer: 5.97 ± 1.76

Question: How did the “Inhibitory effect on pulmonary infections, Bacterial pneumonia” value (streptococcus pneumoniae) turn out when “RGADRAGGGGPRCYCGE (cysteine pairing not given here) [Polypeptide IV]” was run?
Answer: 45.05 ± 3.25

Question: And the “Inhibitory effect on pulmonary infections, Chlamydia pneumonia” value (chlamydia pneumoniae)?
Answer: 38.85 ± 3.11

Question: And the “Inhibitory effect on pulmonary infections, Mycoplasma pneumonia” value (mycoplasma pneumoniae)?
Answer: 43.27 ± 5.63

Question: And the “content of TGF-β1 in serum” value [2]?
Answer: highly significantly different from the model group (**P<0.01)

Question: What about the “Optical density values, 12 hours” value [3] of the same molecule?
Answer: 0.309 ± 0.010

Question: What about the “Optical density values, 24 hours” value [3] of the same molecule?
Answer: 0.385 ± 0.008

Question: And the “Optical density values, 48 hours” value [3]?
Answer: 0.598 ± 0.013

Question: What about the “inhibition of the proliferation of cardiac fibroblasts of rats” value [3] of the same molecule?
Answer: could inhibit the proliferation

Question: And the “Inhibitory effect on pulmonary infections, Protozoal pneumonia” value (protozoa)?
Answer: 49.04 ± 3.17

Question: What about the “Inhibitory effect on pulmonary infections, Viral pneumonia” value (adenovirus) of the same molecule?
Answer: 58.07 ± 2.07

Question: And the “Inhibitory effect on pulmonary infections, Fungal pneumonia” value (pneumonia fungi)?
Answer: 48.61 ± 3.22

Question: And the “Inhibitory effect on pulmonary infections, Pneumonia caused by pulmonary infections” value (pulmonary infections)?
Answer: 55.57 ± 4.25

Question: And the “inhibition of proliferation and activation of LX-2 cells, difference from model group” value (LX-2 cells)?
Answer: significantly different from the model group (*P<0.05)

Question: And the OD value (LX-2 cells)?
Answer: 0.64 ± 0.03

Question: What about the “Survival rate (%)” value [1] of the same molecule?
Answer: 92.9%

Question: And the “expression of HYP in the skin tissue” value (skin fibrosis model mice)?
Answer: highly significantly different from the model group (*P<0.05)

Question: What about the “content of TGF-β1 in serum” value (myelofibrosis model mice) of the same molecule?
Answer: highly significantly different from the model group (**P<0.01)

Question: And the Hb (myelofibrosis model mice)?
Answer: 155 ± 16

Question: What about the MCV (myelofibrosis model mice) of the same molecule?
Answer: 54 ± 5

Question: What about the RDW (myelofibrosis model mice) of the same molecule?
Answer: 24 ± 1

Question: And the WBC (myelofibrosis model mice)?
Answer: 5.83 ± 1.07
